The record followed here is publication PMC5564600 (Oncotarget, 2017).

Holding throughout (experiment): biochemical
What all share (assay type): binding

Test [1] addresses T1, panel of 442 kinases (Homo sapiens, UniProt Q15375).
T1 construct: purchased Ambit Biosciences (scanMAXX KINOMEscan)
Particulars: EPHA7; for remaining activity at 1 µM: read-out: % of control at 1 µM.

Test [2] deals with T2, panel of 442 kinases (Homo sapiens, UniProt P00519, T315I).
T2 construct: purchased Ambit Biosciences (scanMAXX KINOMEscan)
Particulars: for remaining activity at 1 µM: read-out: % of control at 1 µM; for remaining activity at 10 µM: read-out: % of control at 10 µM.

Test [3] deals with T3, panel of 442 kinases (Homo sapiens, UniProt Q9UKE5).
T3 construct: purchased Ambit Biosciences (scanMAXX KINOMEscan)
Particulars: kinase TNIK; for remaining activity at 1 µM: read-out: TNIK (% of control at 1 µM).

The target of test [4] is T4, panel of 442 kinases (Homo sapiens, UniProt P42681).
T4 construct: purchased Ambit Biosciences (scanMAXX KINOMEscan)
T4 sequence (P42681 1-527): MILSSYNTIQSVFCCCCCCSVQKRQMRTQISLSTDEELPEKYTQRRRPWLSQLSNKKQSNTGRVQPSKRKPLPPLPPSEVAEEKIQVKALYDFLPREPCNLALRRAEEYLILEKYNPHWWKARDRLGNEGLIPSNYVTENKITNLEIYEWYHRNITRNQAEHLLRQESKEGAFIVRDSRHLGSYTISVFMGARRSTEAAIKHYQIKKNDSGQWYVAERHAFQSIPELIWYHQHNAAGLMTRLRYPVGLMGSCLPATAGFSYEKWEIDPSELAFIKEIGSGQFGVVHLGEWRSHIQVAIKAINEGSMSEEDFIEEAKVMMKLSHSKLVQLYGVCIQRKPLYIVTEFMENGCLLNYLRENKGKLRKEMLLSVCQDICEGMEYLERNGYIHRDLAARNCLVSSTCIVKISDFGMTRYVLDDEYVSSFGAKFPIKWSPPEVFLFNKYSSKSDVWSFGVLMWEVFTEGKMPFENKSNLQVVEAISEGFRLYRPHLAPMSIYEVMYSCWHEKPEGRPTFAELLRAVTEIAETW
The following applies: kinase TXK; for remaining activity at 1 µM: read-out: TXK (% of control at 1 µM).

Test [5] addresses T5, panel of 442 kinases (Homo sapiens, UniProt Q15139).
T5 construct: purchased Ambit Biosciences (scanMAXX KINOMEscan)
T5 sequence (Q15139 1-912): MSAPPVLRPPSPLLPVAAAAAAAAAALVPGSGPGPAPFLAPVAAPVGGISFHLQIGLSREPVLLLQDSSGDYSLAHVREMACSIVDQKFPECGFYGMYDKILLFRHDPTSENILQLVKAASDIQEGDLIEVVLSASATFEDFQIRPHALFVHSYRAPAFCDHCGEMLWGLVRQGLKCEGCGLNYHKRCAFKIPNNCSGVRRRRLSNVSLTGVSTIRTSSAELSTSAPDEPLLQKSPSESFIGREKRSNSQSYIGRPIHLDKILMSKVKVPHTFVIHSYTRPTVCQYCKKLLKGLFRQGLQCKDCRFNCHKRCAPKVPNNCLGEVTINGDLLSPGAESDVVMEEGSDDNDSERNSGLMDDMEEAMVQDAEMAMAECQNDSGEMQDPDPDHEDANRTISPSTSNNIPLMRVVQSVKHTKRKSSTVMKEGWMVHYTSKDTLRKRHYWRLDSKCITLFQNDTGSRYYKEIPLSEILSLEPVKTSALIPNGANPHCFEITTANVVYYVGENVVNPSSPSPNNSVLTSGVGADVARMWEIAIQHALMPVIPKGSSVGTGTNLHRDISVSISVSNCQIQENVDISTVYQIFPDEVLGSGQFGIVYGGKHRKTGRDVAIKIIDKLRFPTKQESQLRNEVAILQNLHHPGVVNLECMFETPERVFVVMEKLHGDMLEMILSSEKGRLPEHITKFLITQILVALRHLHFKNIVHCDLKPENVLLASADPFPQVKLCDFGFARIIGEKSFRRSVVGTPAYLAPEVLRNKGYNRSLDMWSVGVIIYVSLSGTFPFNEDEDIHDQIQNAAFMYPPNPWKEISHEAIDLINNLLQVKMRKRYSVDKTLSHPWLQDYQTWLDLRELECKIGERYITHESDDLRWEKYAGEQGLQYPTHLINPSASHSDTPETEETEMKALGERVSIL
Particulars: kinase PRKD1; for remaining activity at 1 µM: read-out: PRKD1 (% of control at 1 µM).

For test [6], the target named is T6, panel of 442 kinases (Homo sapiens, UniProt O96017).
T6 construct: purchased Ambit Biosciences (scanMAXX KINOMEscan)
Particulars: CHEK2; for remaining activity at 1 µM: read-out: % of control at 1 µM.

Test [7] deals with T7, panel of 442 kinases (Homo sapiens, UniProt P22607).
T7 construct: purchased Ambit Biosciences (scanMAXX KINOMEscan)
The following applies: FGFR3; for remaining activity at 1 µM: read-out: % of control at 1 µM.

The target in test [8] is T8, panel of 442 kinases (Homo sapiens, UniProt P17612).
T8 construct: purchased Ambit Biosciences (scanMAXX KINOMEscan)
Particulars: kinase PKAC-alpha; for remaining activity at 1 µM: read-out: % of control at 1 µM.

The target of test [9] is T9, panel of 442 kinases (Homo sapiens, UniProt Q16620).
T9 construct: purchased Ambit Biosciences (scanMAXX KINOMEscan)
Particulars: kinase TRKB; for remaining activity at 1 µM: read-out: TRKB (% of control at 1 µM).

[10] abbreviates: 10 µM, read-out: % of control at 10 µM.

Molecules are shown by their SMILES. Like-named read-outs stand apart in the source and are kept apart here.

T3 sequence (Q9UKE5 whole entry): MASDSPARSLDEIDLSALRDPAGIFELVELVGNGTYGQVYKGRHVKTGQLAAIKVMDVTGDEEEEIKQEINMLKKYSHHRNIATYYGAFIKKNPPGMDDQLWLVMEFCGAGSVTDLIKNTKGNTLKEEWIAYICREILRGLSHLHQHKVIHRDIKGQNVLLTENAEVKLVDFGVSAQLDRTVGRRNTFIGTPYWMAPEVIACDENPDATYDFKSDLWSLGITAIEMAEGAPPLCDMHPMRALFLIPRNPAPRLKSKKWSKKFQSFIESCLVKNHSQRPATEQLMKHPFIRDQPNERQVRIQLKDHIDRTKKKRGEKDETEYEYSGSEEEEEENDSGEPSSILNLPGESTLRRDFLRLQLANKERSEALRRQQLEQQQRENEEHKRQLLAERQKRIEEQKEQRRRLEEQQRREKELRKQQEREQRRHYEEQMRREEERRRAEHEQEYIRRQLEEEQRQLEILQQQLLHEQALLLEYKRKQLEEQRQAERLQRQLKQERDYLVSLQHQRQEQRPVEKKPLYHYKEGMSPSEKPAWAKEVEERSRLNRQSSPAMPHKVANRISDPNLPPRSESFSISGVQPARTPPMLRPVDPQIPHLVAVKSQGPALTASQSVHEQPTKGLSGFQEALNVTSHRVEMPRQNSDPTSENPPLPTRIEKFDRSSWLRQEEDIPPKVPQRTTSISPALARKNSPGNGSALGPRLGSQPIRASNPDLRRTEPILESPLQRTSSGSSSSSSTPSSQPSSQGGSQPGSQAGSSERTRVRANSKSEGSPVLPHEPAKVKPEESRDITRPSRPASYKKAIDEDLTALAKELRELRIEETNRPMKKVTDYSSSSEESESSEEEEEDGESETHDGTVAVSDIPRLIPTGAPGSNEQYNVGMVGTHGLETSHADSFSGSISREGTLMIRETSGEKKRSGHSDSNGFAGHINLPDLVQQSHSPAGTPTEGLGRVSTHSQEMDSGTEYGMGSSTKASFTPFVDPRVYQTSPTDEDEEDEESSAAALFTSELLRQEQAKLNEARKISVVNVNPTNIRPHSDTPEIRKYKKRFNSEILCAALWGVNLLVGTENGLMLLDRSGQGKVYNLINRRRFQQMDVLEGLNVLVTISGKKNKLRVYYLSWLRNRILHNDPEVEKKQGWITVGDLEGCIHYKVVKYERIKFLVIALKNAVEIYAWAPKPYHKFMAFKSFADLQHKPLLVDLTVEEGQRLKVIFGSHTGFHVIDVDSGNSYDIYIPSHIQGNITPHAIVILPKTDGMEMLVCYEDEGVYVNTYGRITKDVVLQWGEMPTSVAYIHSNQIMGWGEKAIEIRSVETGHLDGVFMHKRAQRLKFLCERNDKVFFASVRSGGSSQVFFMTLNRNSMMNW
T1 sequence (Q15375 28-998): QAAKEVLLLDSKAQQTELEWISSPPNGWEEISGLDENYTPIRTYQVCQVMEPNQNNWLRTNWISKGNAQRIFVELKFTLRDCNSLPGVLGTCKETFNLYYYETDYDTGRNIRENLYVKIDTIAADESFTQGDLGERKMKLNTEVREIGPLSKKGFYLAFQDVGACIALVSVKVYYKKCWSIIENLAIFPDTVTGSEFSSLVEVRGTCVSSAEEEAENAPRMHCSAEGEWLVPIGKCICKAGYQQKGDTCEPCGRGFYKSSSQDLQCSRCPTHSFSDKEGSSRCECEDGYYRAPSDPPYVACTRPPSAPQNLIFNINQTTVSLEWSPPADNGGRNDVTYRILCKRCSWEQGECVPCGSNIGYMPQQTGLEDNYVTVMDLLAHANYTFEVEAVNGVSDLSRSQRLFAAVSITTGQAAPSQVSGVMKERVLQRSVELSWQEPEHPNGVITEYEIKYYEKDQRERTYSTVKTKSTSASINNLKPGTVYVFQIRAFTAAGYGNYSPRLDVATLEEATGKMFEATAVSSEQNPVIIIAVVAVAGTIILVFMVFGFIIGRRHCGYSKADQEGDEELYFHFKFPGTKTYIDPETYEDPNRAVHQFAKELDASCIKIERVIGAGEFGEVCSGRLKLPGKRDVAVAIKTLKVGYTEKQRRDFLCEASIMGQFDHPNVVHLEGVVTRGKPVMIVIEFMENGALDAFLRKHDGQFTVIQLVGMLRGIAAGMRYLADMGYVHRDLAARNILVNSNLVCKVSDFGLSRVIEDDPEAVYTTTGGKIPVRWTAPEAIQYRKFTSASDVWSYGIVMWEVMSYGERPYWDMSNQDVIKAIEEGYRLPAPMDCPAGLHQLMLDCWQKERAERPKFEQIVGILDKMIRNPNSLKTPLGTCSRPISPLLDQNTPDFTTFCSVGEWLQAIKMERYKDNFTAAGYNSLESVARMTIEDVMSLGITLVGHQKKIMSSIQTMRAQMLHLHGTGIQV
T9 sequence (Q16620 32-822): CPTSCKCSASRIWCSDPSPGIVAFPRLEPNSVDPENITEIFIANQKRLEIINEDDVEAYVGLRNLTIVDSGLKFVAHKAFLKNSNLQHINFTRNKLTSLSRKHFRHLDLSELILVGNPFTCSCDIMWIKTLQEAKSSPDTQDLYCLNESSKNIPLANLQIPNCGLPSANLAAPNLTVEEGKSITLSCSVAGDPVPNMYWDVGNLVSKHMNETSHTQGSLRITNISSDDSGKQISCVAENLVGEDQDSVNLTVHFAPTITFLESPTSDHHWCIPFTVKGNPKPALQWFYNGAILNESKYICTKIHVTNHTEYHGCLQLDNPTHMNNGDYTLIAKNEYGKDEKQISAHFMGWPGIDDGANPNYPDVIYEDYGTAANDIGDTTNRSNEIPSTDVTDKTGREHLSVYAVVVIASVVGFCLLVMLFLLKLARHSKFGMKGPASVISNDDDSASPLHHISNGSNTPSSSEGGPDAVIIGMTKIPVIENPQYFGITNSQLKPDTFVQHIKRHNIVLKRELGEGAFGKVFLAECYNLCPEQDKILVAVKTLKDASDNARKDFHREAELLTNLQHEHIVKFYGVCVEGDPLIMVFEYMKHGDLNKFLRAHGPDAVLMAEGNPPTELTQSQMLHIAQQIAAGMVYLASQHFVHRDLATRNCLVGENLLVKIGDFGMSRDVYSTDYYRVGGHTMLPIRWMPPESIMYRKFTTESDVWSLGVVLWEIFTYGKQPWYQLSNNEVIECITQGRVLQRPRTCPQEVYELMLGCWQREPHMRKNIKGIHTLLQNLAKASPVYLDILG
T7 sequence (P22607 23-806): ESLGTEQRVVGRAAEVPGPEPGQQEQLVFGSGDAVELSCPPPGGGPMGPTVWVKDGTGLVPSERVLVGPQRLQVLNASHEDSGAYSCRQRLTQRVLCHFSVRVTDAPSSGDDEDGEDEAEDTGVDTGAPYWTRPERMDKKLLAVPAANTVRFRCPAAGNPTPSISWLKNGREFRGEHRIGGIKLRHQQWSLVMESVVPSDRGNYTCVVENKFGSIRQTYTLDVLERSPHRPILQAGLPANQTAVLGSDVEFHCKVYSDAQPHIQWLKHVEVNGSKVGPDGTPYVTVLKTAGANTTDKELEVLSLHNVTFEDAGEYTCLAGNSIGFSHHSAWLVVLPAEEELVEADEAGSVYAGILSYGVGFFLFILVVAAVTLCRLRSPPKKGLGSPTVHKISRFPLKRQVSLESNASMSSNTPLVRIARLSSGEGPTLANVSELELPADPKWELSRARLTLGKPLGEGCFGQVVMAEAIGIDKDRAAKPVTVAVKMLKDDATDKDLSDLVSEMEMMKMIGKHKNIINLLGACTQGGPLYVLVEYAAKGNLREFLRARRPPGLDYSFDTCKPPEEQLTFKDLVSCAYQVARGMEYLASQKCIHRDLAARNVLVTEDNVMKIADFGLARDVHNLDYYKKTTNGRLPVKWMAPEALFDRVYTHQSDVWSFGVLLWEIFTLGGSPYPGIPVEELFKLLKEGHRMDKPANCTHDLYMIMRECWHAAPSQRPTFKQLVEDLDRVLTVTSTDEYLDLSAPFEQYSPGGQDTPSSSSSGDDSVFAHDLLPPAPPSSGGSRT
T6 sequence (O96017 whole entry): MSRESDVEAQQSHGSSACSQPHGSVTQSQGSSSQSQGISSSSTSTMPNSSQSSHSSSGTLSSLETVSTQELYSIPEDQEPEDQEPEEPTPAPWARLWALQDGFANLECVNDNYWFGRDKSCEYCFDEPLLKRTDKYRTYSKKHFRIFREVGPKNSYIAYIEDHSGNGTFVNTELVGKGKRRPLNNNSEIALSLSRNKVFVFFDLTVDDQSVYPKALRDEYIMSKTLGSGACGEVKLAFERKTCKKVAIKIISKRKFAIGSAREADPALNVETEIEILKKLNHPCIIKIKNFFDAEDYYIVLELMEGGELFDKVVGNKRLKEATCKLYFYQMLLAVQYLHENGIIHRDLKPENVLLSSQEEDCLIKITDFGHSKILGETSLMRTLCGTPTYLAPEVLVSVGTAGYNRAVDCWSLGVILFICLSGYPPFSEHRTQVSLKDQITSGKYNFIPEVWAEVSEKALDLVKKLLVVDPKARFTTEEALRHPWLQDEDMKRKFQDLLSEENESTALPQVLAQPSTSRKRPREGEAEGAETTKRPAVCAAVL

In the case of `Nc1cc(C(F)(F)F)c(-c2cc(N3CCOCC3)nc(N3CCOCC3)n2)cn1` [Buparlisib], the remaining activity at 1 µM at panel of 442 kinases [1] was determined as 100%; on panel of 442 kinases [2] (ABL1(T315I)-nonphosphorylated), 94%; on panel of 442 kinases [2] (ABL1(T315I)-phosphorylated), 73%; on panel of 442 kinases [3], 100%; at panel of 442 kinases [4], 98%; at panel of 442 kinases [5] it was 100%. The remaining activity at 1 µM at panel of 442 kinases [6] came out at 93%; at panel of 442 kinases [7] it was 100%; at panel of 442 kinases [8], 86%; at panel of 442 kinases [9] it was 96%. Further, the remaining activity at 10 µM on panel of 442 kinases [1] (setting [10]) came to 100%; on panel of 442 kinases [2] (ABL1(T315I)-nonphosphorylated), 78%; on panel of 442 kinases [2] (ABL1(T315I)-phosphorylated) it was 100%; at panel of 442 kinases [3] (10 µM, read-out: TNIK (% of control at 10 µM)), 100%; on panel of 442 kinases [4] (10 µM, read-out: TXK (% of control at 10 µM)), 89%; on panel of 442 kinases [5] (10 µM, read-out: PRKD1 (% of control at 10 µM)), 100%. For the same compound, the remaining activity at 10 µM at panel of 442 kinases [6] (setting [10]) turned out to be 100%; at panel of 442 kinases [7] (setting [10]), 100%; at panel of 442 kinases [8] (setting [10]) it was 100%; at panel of 442 kinases [9] (10 µM, read-out: TRKB (% of control at 10 µM)) it was 80%.

As for `Cn1c(=O)n(-c2ccc(C(C)(C)C#N)cc2)c2c3cc(-c4cnc5ccccc5c4)ccc3ncc21` [Dactolisib, 2-methyl-2-[4-(3-methyl-2-oxo-8-quinolin-3-yl-2,3-dihydroimidazo[4,5-c]quinolin-1-yl)-phenyl] propionitrile], the remaining activity at 1 µM at panel of 442 kinases [1] is 100%; at panel of 442 kinases [2] (ABL1(T315I)-nonphosphorylated), 58%; on panel of 442 kinases [4], 100%; on panel of 442 kinases [5], 100%; at panel of 442 kinases [7] it was 100%; at panel of 442 kinases [8] it was 100%. Besides, on panel of 442 kinases [9], the remaining activity at 1 µM is 61%.

Regarding `FC(F)c1nc2ccccc2n1-c1nc(N2CCOCC2)nc(N2CCOCC2)n1` [ZSTK474, 2-(difluoromethyl)-1-[4,6-di(4-morpholinyl)-1,3,5-triazin-2-yl]-1H-benzimidazole], the remaining activity at 1 µM at panel of 442 kinases [1] turned out to be 100%; at panel of 442 kinases [2] (ABL1(T315I)-nonphosphorylated) it was 50%; at panel of 442 kinases [2] (ABL1(T315I)-phosphorylated), 100%; at panel of 442 kinases [3], 100%; on panel of 442 kinases [4], 83%; at panel of 442 kinases [5], 100%. Also, the remaining activity at 1 µM on panel of 442 kinases [6] is 92%; on panel of 442 kinases [7] it was 100%; at panel of 442 kinases [8], 100%; at panel of 442 kinases [9], 100%.

As to `COc1ncc(-c2ccc3nccc(-c4ccnnc4)c3c2)cc1NS(=O)(=O)c1ccc(F)cc1F` [Omipalisib], the remaining activity at 1 µM at panel of 442 kinases [1] turned out to be 100%; at panel of 442 kinases [2] (ABL1(T315I)-nonphosphorylated) it was 98%; on panel of 442 kinases [2] (ABL1(T315I)-phosphorylated) it was 81%; at panel of 442 kinases [3], 100%; on panel of 442 kinases [4] it was 82%; on panel of 442 kinases [5], 100%. Moreover, the remaining activity at 1 µM at panel of 442 kinases [6] is 100%; at panel of 442 kinases [7] it was 87%; on panel of 442 kinases [8], 84%; on panel of 442 kinases [9], 100%.
